Values after ≈ are worked out from the molar mass of the structure shown.
Assays:
[1] = Human liver microsomal Clint; format: in vitro ADME; details: for microsomal CLint: read-out: HLM Clint
[2] = Log D7.4 shake-flask octanol-water; format: physicochemical; details: pH 7.4
Experimental: Log D7.4. Shake-flask octanol-water distribution coefficient was determined at pH 7.4 (Log D7.4). The aqueous solution used is 10 mM sodium phosphate pH 7.4 buffer. The method has been validated for Log D7.4 ranging from -2 to 5.0.
Human Plasma Protein Binding (PPB). PPB was determined using equilibrium dialysis (RED device) to separate free from bound compound. The amount of compound in plasma (10 µM initial concentration) and in dialysis buffer (pH 7.4 phosphate buffer) was measured by LC-MS/MS after equilibration at 37 °C in a dialysis chamber. The fraction unbound (fu) is reported.
Human Liver Microsomal Clint. In vitro intrinsic clearance was determined from human liver microsomes using a standard approach.11 Following incubation and preparation, the samples were analyzed using […]
Rat Hepatocyte Clint. In vitro intrinsic clearance was determined from rat hepatocytes using a standard approach.11 Following incubation and preparation, the samples were analyzed using LC/MS/MS. Refined […]
Calculated LogP and LogD values. Both LogP and LogD predictions are based on a modified version of the method12 where the predicted partition coefficients are composed of the molecules’ atomic increments.
General Chemistry. All starting materials were commercially obtained and were used without further purification, unless specified. Reaction solvents were purified by passage through alumina columns on a purification system manufactured by Innovative Technology (Newburyport, MA). NMR spectra were obtained on Varian NMR systems, operating at 400 or 500 MHz for 1 H acquisitions. LCMS analysis was performed using a Waters AllianceHT e2795 reverse phase HPLC (Waters SunFire C18 4.6 × 50 mm, 3.5 μm column), with a Waters 2996 photodiode array detector scanning from 210 nm to 600 nm, and Waters Micromass ZQ detector (electrospray ionization). Where required, final compounds were purified by preparative reverse phase HPLC (columns Waters Symmetry RP8 30 × 50 mm, 5 μm column, or OBD RP18 30 × 50 mm, 5 μm), with a single wavelength UV−visible detector and Waters Micromass ZQ (electrospray ionization).

adult S. mansoni = assay: Phenotypic screen of adult S. mansoni worms, severity scores and descriptors; format: cell-based, Schistosoma mansoni; details: for Severity Scores (10 μM) 1 h / Severity Scores (10 μM) 5 h / Severity Scores (10 μM) 24 h / Severity Scores (10 μM) 48 h / Descriptors (10 µM) 1 h / Descriptors (10 µM) 5 h / Descriptors (10 µM) 24 h / Descriptors (10 µM) 48 h: adult S. mansoni; for Severity Scores (10 μM) 1 h / Severity Scores (10 μM) 5 h / Severity Scores (10 μM) 24 h / Severity Scores (10 μM) 48 h: scale 0 (no activity) to 4 (maximal activity); for bioactivity against adult S. mansoni: adult schistosomes; for Severity Scores (10 μM) 1 h / Severity Scores (10 μM) 5 h / Severity Scores (10 μM) 24 h / Severity Scores (10 μM) 48 h / bioactivity against adult S. mansoni: 10 μM; for Descriptors (10 µM) 1 h / Descriptors (10 µM) 5 h / Descriptors (10 µM) 24 h / Descriptors (10 µM) 48 h: phenotypic descriptors
Excerpt: Because the schistosome parasite can present multiple and dynamic phenotypic responses to chemical insult,[16] we employ a constrained nomenclature of descriptors to describe the changes in the parasite as a function of time and concentration (e.g., motility, density, and shape; and in the case of the adult parasite, an inability to adhere to the bottom of the assay dish). These descriptors are converted into severity scores on a scale of 0 (green)–4 (severest/red) that allow for partially quantitative comparisons of compound effects.[1]−[19] […] The descriptors themselves and their respective scores are detailed in the Supporting Information, Table S1. Severity score data are presented in the results (with the corresponding descriptors detailed in the Supporting Information, Tables S2–S8), and eight new analogs developed and synthesized in support of this effort are described. Finally, absorption, distribution, metabolism and excretion (ADME) data of all compounds presented in this work are reported in the Supporting Information, Table S15.
Table S1. Descriptors and associated severity scores used for S. mansoni adults.
R (rounded or shape altered 1
On sides (adults unable to 1
Shrunk (adults are shorter 1
surface (tegument) of adults)
dfailed to create analytical method
Maintenance of the Schistosoma mansoni life cycle (NMRI isolate), the preparation of adult worms (≥ 42-
days-old), and their co-incubation with test compounds were as described.7-9 Phenotypic responses were
visually recorded using a constrained nomenclature and converted to severity scores on a scale from zero
(no activity) to 4 (maximal activity).8, 9 Use of hamsters for maintaining the S. mansoni life-cycle was
approved by the Institutional Animal Care and Use Committee of the University of California San Diego.
The human myelomonocytic cell line THP -1 was grown at 37 °C and 5% CO2 in RPMI-1640 supplemented
with 10% iFBS, 2 mM glutamate, 100 U/mL penicillin and […] streptomycin.
Drug toxicity to HepG2 cells .10 HepG2 cells line were obtained from the American Type Culture
Collection and cultured in Minimal Essential Medium (MEM) supplemented with 0.19% sodium
bicarbonate, 10% Fetal Bovine Serum, 2 mM L -glutamine, 0.1 mM MEM non-essential amino, 0.009
mg/mL insulin, 1.76 mg/mL bovine serum albumin. The viability of the cells was measured using the MTT
(thiazolyl blue reduction) method. Briefly, ninety -six-well plates were seeded with 2.5 × 10^4 cells/well in
170 ml of culture medium and incubated overnight in 5% CO 2 at 37 °C. Cells were exposed to different
experimental compounds in DMSO. After 48 hours incubation, the viability of the cells was assessed using
MTT (thiazolyl blue reduction) as a dose response assay (11 two -fold serial dilutions) to obtain a calculated
IC50 determination. 4-Azaindolo[2,1-b]quinazoline-6,12-dione is used as a toxicity positive control and
each assay plate includes the following 3 additional controls: a) background control: no cells and no drug
was added, b) target control: cells added but no drugs, and c) DMSO control: same as the target control
except the culture media contains 0.6% DMSO. Absorbance was determined in all wells using a Perkin
Elmer, Ensight plate reader. The fifty percent inhibitory concentrations (IC50’s) were determined using
GraphPad Prism nonlinear regr ession (sigmoidal dose -response, variable slope) equation .
ADME Experiment Protocols
Aqueous pH 7.4 Solubility. Compounds were dried down from 10 mM DMSO solutions using centrifugal
evaporation technique. Phosphate buffer (0.1 M pH 7.4) was added and StirStix were inserted in the glass
vials, with shaking then performed at a constant temperature of 25 °C for 20 -24 h. This step was followed
by double centrifugation with a tip wash in between, to ensure that no residues of the dried compounds
interfere. The solutions were diluted before analysis and quantification using LC/MS/MS was performed.

Rat hepatocyte Clint = format: in vitro ADME; details: rat hepatocytes, intrinsic clearance; for hepatocyte CLint: read-out: RH CLint
[3] = Aqueous pH 7.4 solubility; format: physicochemical; details: for solubility: aqueous buffer, thermodynamic from solid, phosphate buffer pH 7.4, 25 °C, 20-24 h, read-out: aq sol (aqueous solubility)
[4] = Human plasma protein binding (equilibrium dialysis); format: in vitro ADME; details: read-out: human PPB (plasma protein binding) (converted); for fraction unbound: pH 7.4, 10 µM, 37 °C; for fraction unbound at 10 µM: pH 7.4, 37 °C
[5] = human liver microsomes, intrinsic clearance

| SMILES | clearance increase compared to 8a ([1]; relative to 8a) [fold] | logD [2] | Severity Scores (10 μM) 1 h (adult S. mansoni) | Severity Scores (10 μM) 5 h (adult S. mansoni) | Severity Scores (10 μM) 24 h (adult S. mansoni) | Severity Scores (10 μM) 48 h (adult S. mansoni) | bioactivity against adult S. mansoni (adult S. mansoni) | hepatocyte CLint (Rat hepatocyte Clint) [µL/min/1e6 cells] | improvement in solubility compared to 8a ([3]; relative to 8a) | fraction unbound [4] | microsomal CLint [1, 5] [µL/min/mg] | Descriptors (10 µM) 1 h (adult S. mansoni) | Descriptors (10 µM) 5 h (adult S. mansoni) | Descriptors (10 µM) 24 h (adult S. mansoni) | solubility [3] [µM] | fraction unbound at 10 µM [4] | Descriptors (10 µM) 48 h (adult S. mansoni) | HLM Clint [1, 5] [μL/min/mg protein] | RH CLint (Rat hepatocyte Clint) [µL/min/10^6 cells] | improved metabolic stability in comparison to 8a ([1]; relative to 8a) [fold] |
| --- | --- | --- | --- | --- | --- | --- | --- | --- | --- | --- | --- | --- | --- | --- | --- | --- | --- | --- | --- | --- |
| Cc1cc2c(Nc3cnccn3)ccnc2cc1-c1cnc(N2CCCN(C)CC2)nc1 [8b] | 2 | 2.5 | 4 | 4 | 4 | 4 | severe phenotypic response recorded after 1 h | 42 | > 33,500 fold | 0.18 | – | – | – | – | – | – | – | – | – | – |
| COc1ccc(NC(=O)c2ccc(-c3cnc(N4CCN(C)CC4)nc3)cc2O)cc1Cl [7a] | – | 3.8 | 0 | 0 | 0 | – | complete loss of activity | 300 | – | – | 44 | none | none | none | 5 (≈ 2.27 µg/mL) | < 0.01 | – | – | – | – |
| COc1ccc(NC(=O)c2ccc(-c3ccc(S(=O)(=O)N4CCN(C)CC4)cc3)cc2O)cc1Cl [7c] | – | 3.9 | 0 | 3 | 2 | – | phenotypic response after 5 h | 300 | – | – | 62 | none | – | – | 6 (≈ 3.1 µg/mL) | < 0.01 | – | – | – | – |
| c1cnc(Nc2ccnc3cc(-c4cnc(N5CCCNCC5)nc4)ccc23)cn1 [4g] | – | 1.8 | 0 | 0 | 0 | 0 | bioactivity of this series was not observed | 4 | – | – | 19 | none | none | none | 53 (≈ 21.1 µg/mL) | 0.37 | none | – | – | – |
| Cc1c(-c2cnc(N3CCCNCC3)nc2)ccc2c(Nc3cnccn3)ccnc12 [9e] | – | 1.6 | 0 | 2 | 4 | 4 | phenotypic response after 5 h | 5.3 | – | 0.24 | – | – | – | – | – | – | – | – | – | – |
| COc1ccc(NC(=O)c2ccc(-c3cccc(N4CCOCC4)c3)cc2O)cc1Cl [7d] | – | 4.7 | 2 | 2 | 3 | 4 | phenotypic response after 1 h which increased in severity over time | 300 | – | – | 12 | S, on sides | S, on sides | S, on sides, dark | 0.1 (≈ 0.0439 µg/mL) | < 0.01 | – | – | – | – |
| CCN1CCCN(c2ncc(-c3cc4nccc(Nc5cnccn5)c4cc3C)cn2)CC1 [8c] | – | 2.6 | 0 | 4 | 4 | 4 | – | 32 | – | 0.16 | – | none | – | – | – | – | – | – | – | – |
| CCCN1CCCN(c2ncc(-c3cc4nccc(Nc5cnccn5)c4cc3C)cn2)CC1 [8d] | – | 3.2 | 1 | 1 | 3 | 3 | bioactivity being detected after 1 h | 35 | – | 0.12 | – | – | – | – | – | – | – | – | – | – |
| Fc1cccc(COc2ccc(Nc3ncnc4ccc(-c5cccc(N6CCOCC6)c5)cc34)cc2Cl)c1 [compound 2] | – | – | – | – | – | – | – | – | – | – | – | – | – | – | < 1 | < 0.01 | – | 63 | 44 | – |
| COc1ccc(NC(=O)c2ccc(-c3cccc(N4CCOCC4)c3)cc2N)cc1Cl [7e] | – | 3.6 | 0 | 0 | 2 | 2 | bioactivity after 24 h | 4.4 | – | – | 59 | none | none | S, on sides | 0.6 (≈ 0.263 µg/mL) | < 0.01 | – | – | – | – |
| Cc1cc2c(Nc3cnccn3)ccnc2cc1-c1cnc(N2CCCNCC2)nc1 [8e] | – | 2.3 | 0 | 0 | 0 | 0 | inactive against schistosomes | < 1 | – | 0.3 | – | none | none | none | – | – | none | – | – | 10 |
| CCCN1CCCN(c2ncc(-c3ccc4c(Nc5cnccn5)ccnc4c3C)cn2)CC1 [9d] | – | 3.3 | 1 | 1 | 4 | 4 | strongly bioactive by 24 h | 36 | – | 0.06 | – | – | – | Unc, deg | – | – | Unc, deg | – | – | – |

From article PMC7073886, “Structure–Bioactivity Relationships of Lapatinib Derived Analogs against Schistosoma mansoni” (ACS Medicinal Chemistry Letters, 2020)
